What was measured:
[1] = 101 kPa, Liquid, Vibrating tube method
[2] = xn = mol fraction of the nth substance listed; details: 101 kPa, Liquid; for speed of sound: Frequency=3 MHz, Single path-length method; for mass density: Vibrating tube method

OCCCO [propan-1,3-diol]
[1]
Details | mass density [kg/m3]
303.15 K | 1046.56
308.15 K | 1043.43
313.15 K | 1040.28
318.15 K | 1037.11
323.15 K | 1033.92

CC(O)CO (stereo not given) [1,2-propanediol] + O=C1CCCN1
[2], x2 = 0
Details | mass density [kg/m3] | speed of sound [m/s]
303.15 K | 1028.94 | 1496.6
308.15 K | 1025.2 | 1482.6
313.15 K | 1021.43 | 1468.5
318.15 K | 1017.63 | 1454.3
323.15 K | 1013.79 | 1440.1

O=C1CCCN1 [2-pyrrolidinone] + OCCCO
[2], x1 = 1
Details | mass density [kg/m3] | speed of sound [m/s]
303.15 K | 1103.07 | 1617.7
308.15 K | 1098.99 | 1601.3
313.15 K | 1094.9 | 1585.4
318.15 K | 1090.82 | 1570.4
323.15 K | 1086.75 | 1553.5

Source: the NIST ThermoML archive (doi:10.1016/j.jct.2017.03.022)
